# Laboratory results from US20160101106A1, “METHODS FOR TREATING HCV INFECTION” (Inhibikase Therpeutics, Inc., priority 2013, published 2016).
# Like-named read-outs stand apart in the source and are kept apart here.
# Legend:
# Format in all cases: cell-based, HCV
# HCVcc GT2a = test: Synergistic antiviral potency against HCVcc (AZ-628 with direct-acting antivirals); conditions: for EC50: read-out: EC50 alone
# Method: The tested RAF inhibitors were evaluated for an ability to synergize with other current, late stage or marketed direct-acting antivirus (DAAs).
# HCVpp, Genotype 1b = test: microbe, parasite or virus in culture
# HCVcc, Genotype 2a = test: HCVcc inhibitor assay in Huh 7.5 cells, Renilla luciferase readout; conditions: Hepatitis C virus, Huh-7.5.1
# Method: The secondary screen, for anti-HCV activity utilized HCVcc, a lab-adapted full infection cycle virus, to evaluate the effect of Raf inhibition on viral entry. The HCVcc inhibitor assay uses Huh 7.5 cells and HCVcc containing the luciferase gene generated from pJ6/JFH1-p7Rluc. Briefly cells are plated one day prior to assay. On the day of assay, media is aspirated. The cells are pre-treated with 100 μl of 1X compound. After 1 h pretreatment, compound containing media is aspirated, HCVcc diluted 1x compound is added to each well. Toxicity plates receive only the test compound in tissue culture medium. […] Compound cytotoxicity is assessed by MTS (CellTiter® 96 Reagent, Promega, Madison Wis.) dye reduction. The % reduction in viral entry is determined and reported. […]
# The plasmids carrying HCV J6/JFH1 genome, or chimeric mCon1/JFH1 or mH77/JFH1 genome and Rluc reporter gene were kindly provided by Dr. Charles Rice at Rockefeller University. […] HCVcc infectivity was determined by TCID50 assay. […] The number of HCV positive cells was counted. The TCID50 was calculated according to the Reed and Muench method.
# The format of the test plate has been standardized by SOUTHERN. […] Samples were evaluated for antiviral efficacy with triplicate measurements using 6 concentrations at half-log (or other) dilutions in order to determine EC50 values and cellular cytotoxicity, if detectable. […]
# [1] = Genotype 1b, luciferase tagged HCV GT-1b pseudotyped virus, Huh 7.5.1, ≧80% confluent cells, MOI 0.02, read-out: EC50
smiles,measurement,setting,value
COC(=O)N[C@H](C(=O)N1CCC[C@H]1c1ncc(-c2ccc(-c3ccc(-c4cnc([C@@H]5CCCN5C(=O)[C@@H](NC(=O)OC)C(C)C)[nH]4)cc3)cc2)[nH]1)C(C)C [BMS-790052],EC50,"HCVcc GT2a; Hepatitis C virus, Genotype 2a, single drug",0.1 nM
same,% antiviral inhibition,"HCVcc GT2a; IkT-064 0 nM, BMS-790052 0.781 pM",0%
same,% antiviral inhibition,"HCVcc GT2a; IkT-064 0 nM, BMS-790052 1.563 pM",0%
same,% antiviral inhibition,"HCVcc GT2a; IkT-064 0 nM, BMS-790052 3.125 pM",8.7%
same,% antiviral inhibition,"HCVcc GT2a; IkT-064 0 nM, BMS-790052 6.25 pM",8.72%
same,% antiviral inhibition,"HCVcc GT2a; IkT-064 0 nM, BMS-790052 12.5 pM",17.27%
same,% antiviral inhibition,"HCVcc GT2a; IkT-064 0 nM, BMS-790052 25 pM",19.54%
same,% antiviral inhibition,"HCVcc GT2a; IkT-064 0 nM, BMS-790052 50 pM",33.86%
same,% antiviral inhibition,"HCVcc GT2a; IkT-064 0 nM, BMS-790052 100 pM",59.54%
Cn1c(Nc2ccc(C(F)(F)F)cc2)nc2cc(Oc3ccnc(-c4ncc(C(F)(F)F)[nH]4)c3)ccc21 [Raf265],EC50,"HCVpp, Genotype 1b; Hepatitis C virus, Huh-7.5.1",890 nM
same,EC50,"HCVcc, Genotype 2a",1050 nM
CCCS(=O)(=O)Nc1ccc(F)c(C(=O)c2c[nH]c3ncc(-c4ccc(Cl)cc4)cc23)c1F [Zelboraf/PLX4032],EC50,"HCVpp, Genotype 1b; [1]",> 5000 nM
Cc1ccc(NC(=O)c2cccc(C(C)(C)C#N)c2)cc1Nc1ccc2ncn(C)c(=O)c2c1 [AZ-628],EC50,"HCVpp, Genotype 1b; Hepatitis C virus, Huh-7.5.1",420 nM
same,inhibition at 0.025 µM,"HCVcc GT2a; Hepatitis C virus, GT2A, IkT-064 25 nM, GS-7977 0 nm",0%
same,inhibition at 0.05 µM,"HCVcc GT2a; Hepatitis C virus, GT2A, IkT-064 50 nM, GS-7977 0 nm",0%
same,inhibition at 0.1 µM,"HCVcc GT2a; Hepatitis C virus, GT2A, IkT-064 100 nM, GS-7977 0 nm",0%
same,inhibition at 0.2 µM,"HCVcc GT2a; Hepatitis C virus, GT2A, IkT-064 200 nM, GS-7977 0 nm",5.15%
same,inhibition at 0.4 µM,"HCVcc GT2a; Hepatitis C virus, GT2A, IkT-064 400 nM, GS-7977 0 nm",73.4%
same,EC50,HCVcc GT2a; Hepatitis C virus,300 nM
same,% antiviral inhibition,"HCVcc GT2a; IkT-064 25 nM, BMS-790052 0 pM",2.83%
same,% antiviral inhibition,"HCVcc GT2a; IkT-064 200 nM, BMS-790052 0 pM",17.39%
same,% antiviral inhibition,"HCVcc GT2a; IkT-064 400 nM, BMS-790052 0 pM",74.25%
same,EC50,"HCVcc, Genotype 2a",120 nM
CC(C)OC(=O)[C@H](C)N[P@](=O)(OC[C@H]1O[C@@H](n2ccc(=O)[nH]c2=O)[C@](C)(F)[C@@H]1O)Oc1ccccc1 [GS-7977],EC50,"HCVcc GT2a; Genotype 2a, single drug",250 nM
same,Fold Synergy,"HCVcc GT2a; Genotype 2a, with AZ-628",5
same,% antiviral inhibition,"HCVcc GT2a; IkT-064 0 nM, GS-7977 1.563 nm",0%
same,% antiviral inhibition,"HCVcc GT2a; IkT-064 0 nM, GS-7977 3.125 nm",0%
same,% antiviral inhibition,"HCVcc GT2a; IkT-064 0 nM, GS-7977 6.25 nm",0%
same,% antiviral inhibition,"HCVcc GT2a; IkT-064 0 nM, GS-7977 12.5 nm",0%
same,% antiviral inhibition,"HCVcc GT2a; IkT-064 0 nM, GS-7977 25 nm",2.65%
same,% antiviral inhibition,"HCVcc GT2a; IkT-064 0 nM, GS-7977 50 nm",11.54%
same,% antiviral inhibition,"HCVcc GT2a; IkT-064 0 nM, GS-7977 100 nm",21.51%
same,% antiviral inhibition,"HCVcc GT2a; IkT-064 0 nM, GS-7977 200 nm",44.74%
CC(C)(C)c1nc(-c2cccc(NS(=O)(=O)c3c(F)cccc3F)c2F)c(-c2ccnc(N)n2)s1 [GSK2118436/dabrafinib],EC50,"HCVpp, Genotype 1b; [1]",> 5000 nM
CNC(=O)c1cc(Oc2ccc(NC(=O)Nc3ccc(Cl)c(C(F)(F)F)c3)cc2)ccn1 [sorafenib],EC50,"HCVpp, Genotype 1b; Hepatitis C virus, Huh-7.5.1",1810 nM
